The values that follow are results of earlier work, collected in patent publication US20260345654A1, “2,8-DIHYDROXYQUINOLINE GLUCURONIDE DERIVATIVES WITH ENHANCED PROPERTIES FOR USE AS ANTICANCER, ANTIVIRAL, ANTIMICROBIAL, AND OTHER THERAPEUTIC APPLICATIONS” (priority 2023, published 2026).

For series [1] the following is noted: iodinated drug; cited from earlier work.
For series [2] the following is noted: Japanese population, 1970's; cited from earlier work.
The test system of series [3] is A2780, A549 and MDA-MB-231 cells. The settings on record: addition of Cu^+2 to the media; cited from earlier work.
Series [4] deals with viral attachment to ACE receptor. The settings on record: COVID 19; copper chelation not required; cited from earlier work.
Series [5] deals with cancer cells. The settings on record: Zhai 2010; Oliveri 2012; cited from earlier work.
Series [6] has as its system tumor cells. The settings on record: addition of docosahexaenoic acid (DHA); Ding 2006; cited from earlier work.

Take `O=C(O)[C@H]1O[C@@H](Oc2cccc3c(I)ccnc23)[C@H](O)[C@@H](O)[C@@H]1O` [4-iodo, 8-hydroxy beta-D-glucopyranosiduronic acid]: the excretion result in series [1] was “mainly urinary”.
With `Oc1c(I)cc(Cl)c2cccnc12` [CQ, 5-chloro-7-iodo-8-hydroxyquinoline], in series [2], the serious side effect entry is listed as “CQ-associated subacute myelo-optic neuropathy”. Further, the “cytotoxicity change with addition of Cu^+2” value in series [3] is “significantly increased the cytotoxicity”. Besides, the antiviral activity mechanism entry in series [4] is “blocking viral attachment to ACE receptor”. The “effect of copper on anti-cancer activity” value in series [5] was “enhancer or prerequisite of the anti-cancer activity”. Further, the “anticancer activity with omega fatty acids” value in series [6] was “increase synergistically”.
